Where a SMILES comes first, the peptide text is derived from it. Bridges are numbered along the chain shown (N, C = ends). [ ]: non-standard residue; d: D form. The star is where a group is joined. DOTA = O=C(O)CN1CCN(CC(=O)O)CCN(CC(=O)*)CCN(CC(=O)O)CC1 Some results are limits rather than exact numbers.

Here are results for four compounds from publication PMC10856354 (International Journal of Molecular Sciences, 2024).

One data set deals with T1, hSST1R (Homo sapiens, UniProt P30872).
T1 construct: expressed in transfected cells; host or cells: CHO cells, gift of Drs; T. Reisine and G. Singh
T1 sequence (P30872 whole entry): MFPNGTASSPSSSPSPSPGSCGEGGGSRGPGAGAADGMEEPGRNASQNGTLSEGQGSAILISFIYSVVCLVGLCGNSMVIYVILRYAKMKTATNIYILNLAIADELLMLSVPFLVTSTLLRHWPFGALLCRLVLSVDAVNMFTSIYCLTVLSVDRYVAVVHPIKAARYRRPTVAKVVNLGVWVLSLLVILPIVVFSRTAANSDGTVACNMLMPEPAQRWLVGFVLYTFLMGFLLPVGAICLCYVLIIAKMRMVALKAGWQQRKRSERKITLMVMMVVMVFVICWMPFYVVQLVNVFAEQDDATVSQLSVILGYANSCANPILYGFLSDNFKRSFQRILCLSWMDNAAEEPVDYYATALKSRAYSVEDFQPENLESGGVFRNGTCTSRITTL
As to the kind of experiment: Receptor autoradiography competition binding vs [125I]I-[LTT]SS28. The procedure: (§1) Cell membrane pellets were prepared from CHO-hSST1R cells, CCL39-hSST2R, CCL39-hSST3R, and CCL39-hSST4R cells, and HEK293-hSST2R cells and stored at −80 °C. Receptor autoradiography was performed on 20-μm-thick cryostat (Microm HM 500, Walldorf, Germany) sections of the membrane pellets mounted on microscope slides, and then stored at −20 °C, as previously described. […] The incubated sections were washed twice for 5 min in cold 170 mmol/L Tris-HCl (pH 8.2) containing 0.25% BSA. After a brief dip in 170 mmol/L Tris-HCl (pH 8.2), the sections were dried quickly and exposed for 1 week to Kodak BioMax MR film (Rochester, NY, USA). IC50 values were calculated after quantification of the data using a computer-assisted image processing system as described previously. Tissue standards (Autoradiographic [^125I] and/or [^14C] microscales, GE Healthcare; Little Chalfont, UK) that contain known amounts of isotope, cross-calibrated to tissue-equivalent ligand concentrations, were used for quantification.

Data set [1] deals with T2, hSST2R (Homo sapiens, UniProt P30874).
T2 construct: expressed in transfected cells
T2 sequence (P30874 whole entry): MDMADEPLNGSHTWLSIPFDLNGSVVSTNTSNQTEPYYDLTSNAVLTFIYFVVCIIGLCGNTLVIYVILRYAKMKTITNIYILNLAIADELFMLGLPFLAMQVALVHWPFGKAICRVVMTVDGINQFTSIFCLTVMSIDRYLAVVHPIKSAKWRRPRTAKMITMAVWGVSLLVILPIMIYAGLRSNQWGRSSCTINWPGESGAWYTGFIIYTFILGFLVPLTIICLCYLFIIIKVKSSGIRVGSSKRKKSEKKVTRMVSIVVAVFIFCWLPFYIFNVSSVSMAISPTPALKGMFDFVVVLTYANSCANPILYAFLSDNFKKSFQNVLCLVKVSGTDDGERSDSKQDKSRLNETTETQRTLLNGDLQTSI
Described as above. On the procedure: as §1

In the next data set the target is T3, hSST3R (Homo sapiens, UniProt P32745).
T3 construct: expressed in transfected cells; host or cells: CCL39 cells, gift of Dr. D. Hoyer (Novartis Pharma)
T3 sequence (P32745 whole entry): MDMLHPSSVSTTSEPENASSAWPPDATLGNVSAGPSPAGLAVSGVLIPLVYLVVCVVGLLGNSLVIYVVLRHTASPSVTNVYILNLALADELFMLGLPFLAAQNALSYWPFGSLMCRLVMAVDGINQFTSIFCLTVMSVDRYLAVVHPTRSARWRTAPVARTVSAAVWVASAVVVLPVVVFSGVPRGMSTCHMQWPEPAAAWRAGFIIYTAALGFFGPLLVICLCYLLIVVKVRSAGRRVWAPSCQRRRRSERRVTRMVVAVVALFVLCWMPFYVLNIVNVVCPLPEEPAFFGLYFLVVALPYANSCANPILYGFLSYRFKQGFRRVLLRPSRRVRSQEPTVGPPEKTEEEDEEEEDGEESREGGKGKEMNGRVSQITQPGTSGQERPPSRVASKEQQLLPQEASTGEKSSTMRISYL
The description is as above. On the procedure: as §1

The next data set concerns the target T4, hSST5R (Homo sapiens, UniProt P35346).
T4 construct: expressed in transfected cells
Described as above.

The target of data set [2] is T2, hSST2R. Put plainly: Immunofluorescence microscopy-based internalization assay in HEK293-hSST2R cells. It is filed as cell-based. As to conditions: for ligand-induced hSST2R internalization (agonism): 30 min at 37 °C. The procedure:
Figure 3 Agonist stimulated hSST2R-internalization in HEK293-hSST2R cells determined by immunofluorescence microscopy.
An immunofluorescence microscopy-based internalization assay for hSST2R was performed in HEK293-hSST2R cells, grown on poly-DLys (20 μg/mL) (Sigma-Aldrich, St. Louis, MO, USA) coated 35-mm four-well plates (Cellstar, Greiner Bio-One GmbH, Frickenhausen, Germany). […] HEK293-hSST2R cells treated with vehicle alone were used as a negative control. The cells were then rinsed twice with PS (100 mM phosphate buffer containing 0.15 M sucrose), fixed and permeabilized for 7 min with cold methanol (−20 °C), rinsed twice with PS, and then blocked for 60 min at room temperature with PS containing 0.1% BSA. Next, cells were incubated for 60 min at room temperature with the hSST2R-specific primary antibody R2-88 (provided by Dr. A. Schönbrunn, Houston, TX, USA) diluted 1:1000 in PS and washed 3 × 5 min with PS containing 0.1% BSA. The cells were incubated for 60 min at room temperature in the dark with the secondary antibody Alexa Fluor 488 goat anti-rabbit IgG (H+ L) (Molecular Probes, Inc., Eugene, OR, USA) diluted in PS (1:600), washed 3 × 5 min with PS containing 0.1% BSA, embedded with PS/glycerol 1:1, and covered with a glass cover slip. The cells were imaged using a Leica DM RB immunofluorescence microscope (Leica, Deerfield, IL, USA) and an Olympus DP10 camera (Olympus Corporation, Shinjuku, Tokyo, Japan).

The conditions of data set [3]: mice, blood collected 5 min pi, radio-HPLC. The procedure: At 5 min pi blood (~1mL) was collected from the heart of mice in a prechilled insulin syringe and swiftly placed in an ice-cold polypropylene tube containing EDTA on ice. Blood samples were centrifuged at 2000× g at 4 °C for 10 min. […] The mixture was centrifuged for 10 min at 15,000× g at 4 °C. […] An RP18 Symmetry Shield cartridge column (5 μm, 3.9 mm × 20 mm, Waters, Vienna, Austria) was eluted at a 1 mL/min flow rate with the following gradient: 100%A/0%B to 60%A/40%B in 40 min, whereby A = 0.1% aqueous TFA and B = MeCN (system 3).

T4 sequence (P35346 whole entry): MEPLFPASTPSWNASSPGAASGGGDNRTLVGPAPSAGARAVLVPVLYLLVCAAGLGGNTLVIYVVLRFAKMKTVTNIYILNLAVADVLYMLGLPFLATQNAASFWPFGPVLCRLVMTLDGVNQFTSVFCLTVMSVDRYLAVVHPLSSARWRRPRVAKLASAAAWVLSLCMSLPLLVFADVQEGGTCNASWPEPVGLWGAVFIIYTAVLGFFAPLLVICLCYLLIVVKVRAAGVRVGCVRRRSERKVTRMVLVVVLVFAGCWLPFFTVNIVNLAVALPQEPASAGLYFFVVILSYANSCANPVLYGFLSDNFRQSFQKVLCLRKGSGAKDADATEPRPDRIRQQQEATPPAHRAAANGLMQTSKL

For `C[C@H](NC(=O)CN1CCN(CC(=O)O)CCN(CC(=O)O)CCN(CC(=O)O)CC1)C(=O)NCC(=O)N[C@H]1CSSC[C@@H](C(=O)O)NC(=O)[C@H](CO)NC(=O)[C@H]([C@@H](C)O)NC(=O)[C@@H]2CSSC[C@H](NC(=O)[C@H](CC(N)=O)NC(=O)[C@H](CCCCN)NC1=O)C(=O)N[C@@H](Cc1ccccc1)C(=O)N[C@H](Cc1c[nH]c3ccccc13)C(=O)N[C@@H](CCCCN)C(=O)N[C@@H]([C@@H](C)O)C(=O)N2` [AT5S, DOTA-Ala^1-Gly^2-c[Cys^3-Lys^4-Asn^5-c[Cys^6-Phe^7-DTrp^8-Lys^9-Thr^10-Cys^11]-Thr^12-Ser^13-Cys^14]] ({DOTA}-AGCKNCF[dW]KTCTSC-OH; disulfide 3-14, 6-11), the IC50 at hSST1R was more than 1000 nM; on hSST2R [1], 616 ± 148 nM; at hSST3R, more than 1000 nM; at hSST5R, more than 1000 nM. Besides, the “ligand-induced hSST2R internalization (agonism)” value at hSST2R [2] (1 µM) and on hSST2R [2] (10 µM) was “failed to trigger the hSST2R internalization” throughout. The “prevention of SS14-induced hSST2R internalization (antagonism)” value on hSST2R [2] (10 µM test peptide + 10 nM SS14, 30 min at 37 °C) was “failed to prevent the hSST2R internalization”.

In the case of `C[C@H](NC(=O)CN1CCN(CC(=O)O)CCN(CC(=O)O)CCN(CC(=O)O)CC1)C(=O)NCC(=O)N[C@H]1CSSC[C@@H](C(=O)O)NC(=O)[C@H](CO)NC(=O)[C@@H]2CSSC[C@H](NC(=O)[C@H](CCCCN)NC1=O)C(=O)N[C@@H](Cc1ccccc1)C(=O)N[C@@H](Cc1ccccc1)C(=O)N[C@H](Cc1c[nH]c3ccccc13)C(=O)N[C@@H](CCCCN)C(=O)N[C@@H]([C@@H](C)O)C(=O)N[C@@H](Cc1ccccc1)C(=O)N2` [AT6S, DOTA-Ala^1-Gly^2-c[Cys^3-Lys^4-c[Cys^5-Phe^6-Phe^7-DTrp^8-Lys^9-Thr^10-Phe^11-Cys^12]-Ser^13-Cys^14]] ({DOTA}-AGCKCFF[dW]KTFCSC-OH; disulfide 3-14, 5-12), the IC50 was determined as 12 ± 3.3 nM at hSST1R, 6.3 ± 0.6 nM at hSST2R [1], 9.7 ± 3.6 nM on hSST3R and 26 ± 7 nM on hSST5R. Further, the “drop in binding affinity for hSST1R compared with native hormone” value at hSST1R (vs SS14) is less than 6 fold. Further, on hSST2R [1] (vs AT2S), the “lower affinity for hSST2R compared with AT2S” value was less than 4 fold. For the same compound, the “drop in binding affinity for hSST2R compared with native hormone” value at hSST2R [1] (vs SS14) is reported as 9 fold. Further, at hSST3R (vs AT2S), the “lower affinity for hSST3R compared with AT2S” value is reported as “≈ 4 fold”. In addition, the “drop in binding affinity for hSST3R compared with native hormone” value at hSST3R (vs SS14) was “≈ 3 fold”. Besides, at hSST5R (vs AT2S), the “lower affinity for hSST5R compared with AT2S” value is listed as less than 2 fold. Also, on hSST5R (vs SS14), the “drop in binding affinity for hSST5R compared with native hormone” value is reported as less than 6 fold. The “ligand-induced hSST2R internalization (agonism)” value on hSST2R [2] (1 µM) is “behaved as a potent agonist”.

On to `C[C@H](NC(=O)CN1CCN(CC(=O)O)CCN(CC(=O)O)CCN(CC(=O)O)CC1)C(=O)NCC(=O)N[C@H]1CSSC[C@@H](C(=O)O)NC(=O)[C@H](CO)NC(=O)[C@H]([C@@H](C)O)NC(=O)[C@@H]2CSSC[C@H](NC(=O)[C@H](CC(N)=O)NC(=O)[C@H](CCCCN)NC1=O)C(=O)N[C@@H](Cc1ccccc1)C(=O)N[C@H](Cc1c[nH]c3ccccc13)C(=O)N[C@@H](CCCCN)C(=O)N[C@@H]([C@@H](C)O)C(=O)N2` [[^111In]In-AT5S, metal not drawn] ({DOTA}-AGCKNCF[dW]KTCTSC-OH; disulfide 3-14, 6-11), for which the “% intact radioligand in peripheral blood” value in data set [3] is more than 96%.

Turning to “DOTA-Ala^1-Gly^2-c[Cys^3-Lys^4-Asn^5-Phe^6-Phe^7-Trp^8-Lys^9-Thr^10-Phe^11-Thr^12-Ser^13-Cys^14-OH] [AT1S, reference compound]”, the “ligand-induced hSST2R internalization (agonism)” value on hSST2R [2] (1 µM) is listed as “clearly able to trigger the internalization of hSST2R”.

For orientation: IC50 means the point on the concentration scale where inhibition reaches its midpoint. Low readings indicate higher potency, high ones lower potency.
